Results published in ChEMBL document CHEMBL1201861, “Genomics of Drug Sensitity in Cancer screening data, Wellcome Trust Sanger Institute”.
pIC50: −log10 of the molar value.

Assays:
Test in all cases: cells
Conditions in all cases: Homo sapiens
LB831-BLC = assay type: functional, cell-based;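 also: growth inhibition of LB831-BLC cells, read out with a cell viability assay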
Description: SANGER: Inhibition of human LB831-BLC cell growth in a cell viability assay.

A101D = assay type: functional, cell-based;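 also: growth inhibition of the cell line, measured with a viability assay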
Description: SANGER: Inhibition of human A101D cell growth in a cell viability assay.

ES3 = assay type: functional, cell-based;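 also: growth inhibition of ES3 cells, read out with a cell viability assay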
Description: SANGER: Inhibition of human ES3 cell growth in a cell viability assay.

HCE-T = assay type: functional, cell-based;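 also: cell viability assay read-out, reporting inhibition of HCE-T cell growth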
Description: SANGER: Inhibition of human HCE-T cell growth in a cell viability assay.

COLO-829 = assay type: functional, cell-based
Description: SANGER: Inhibition of human COLO-829 cell growth in a cell viability assay.

K562 = assay type: functional, cell-based
Description: SANGER: Inhibition of human K-562 cell growth in a cell viability assay.

TE-6 = assay type: functional, cell-based;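 also: growth inhibition of TE-6 cells, read out with a cell viability assay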
Description: SANGER: Inhibition of human TE-6 cell growth in a cell viability assay.

NB6 = assay type: functional, cell-based
Description: SANGER: Inhibition of human NB6 cell growth in a cell viability assay.

BB65-RCC = assay type: functional, cell-based;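 also: growth inhibition of the cell line, measured with a cell viability assay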
Description: SANGER: Inhibition of human BB65-RCC cell growth in a cell viability assay.

BB30-HNC = assay type: functional, cell-based;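 also: growth inhibition of the cultured cell line, read out by a cell viability assay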
Description: SANGER: Inhibition of human BB30-HNC cell growth in a cell viability assay.

NB69 = assay type: functional, cell-based;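 also: growth inhibition of NB69 cells, determined by a cell viability assay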
Description: SANGER: Inhibition of human NB69 cell growth in a cell viability assay.

NCI-H1395 = assay type: functional, cell-based;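 also: cell viability assay read-out quantifying reduced proliferation of human NCI-H1395 cells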
Description: SANGER: Inhibition of human NCI-H1395 cell growth in a cell viability assay.

CCRF-CEM = assay type: functional, cell-based;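 also: inhibition of CCRF-CEM cell growth, measured by a cell viability assay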
Description: SANGER: Inhibition of human CCRF-CEM cell growth in a cell viability assay.

OCI-AML2 = assay type: functional, cell-based;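 also: growth inhibition of OCI-AML2 cells, read out with a cell viability assay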
Description: SANGER: Inhibition of human OCI-AML2 cell growth in a cell viability assay.

MMAC-SF = assay type: functional, cell-based;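 also: growth inhibition of human MMAC-SF cells, read out with a cell viability assay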
Description: SANGER: Inhibition of human MMAC-SF cell growth in a cell viability assay.

LS-411N = assay type: functional, cell-based
SHP77 = assay type: functional, cell-based, SHP-77;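 also: growth inhibition of human SHP-77 cells measured by a cell viability assay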
Description: SANGER: Inhibition of human SHP-77 cell growth in a cell viability assay.

U-87 MG = assay type: functional, cell-based, U-87MG ATCC;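 also: growth inhibition of the cells measured with a viability assay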
Description: SANGER: Inhibition of human U-87-MG cell growth in a cell viability assay.

697 = assay type: functional, cell-based
Description: SANGER: Inhibition of human 697 cell growth in a cell viability assay.

NCI-H226 = assay type: functional, cell-based;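 also: cell viability read-out used to gauge growth inhibition of the cells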
Description: SANGER: Inhibition of human NCI-H226 cell growth in a cell viability assay.

KM-H2 = assay type: functional, cell-based;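 also: growth inhibition of KM-H2 cells, read out by a cell viability assay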
Description: SANGER: Inhibition of human KM-H2 cell growth in a cell viability assay.

LS-1034 = assay type: functional, cell-based
Description: SANGER: Inhibition of human LS-1034 cell growth in a cell viability assay.

DU-4475 = assay type: functional, cell-based
Description: SANGER: Inhibition of human DU-4475 cell growth in a cell viability assay.

ES4 = assay type: functional, cell-based;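 also: growth inhibition of human ES4 cells, read out by a cell viability assay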
Description: SANGER: Inhibition of human ES4 cell growth in a cell viability assay.

A388 = assay type: functional, cell-based;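 also: growth inhibition of human A388 cells, read out with a cell viability assay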
Description: SANGER: Inhibition of human A388 cell growth in a cell viability assay.

GI-1 = assay type: functional, cell-based;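 also: growth inhibition of human GI-1 cells, measured with a cell viability readout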
Description: SANGER: Inhibition of human GI-1 cell growth in a cell viability assay.

C2BBe1 = assay type: functional, cell-based;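 also: growth inhibition of C2BBe1 cells, read out through a viability assay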
Description: SANGER: Inhibition of human C2BBe1 cell growth in a cell viability assay.

Ramos-2G6-4C10 = assay type: functional, cell-based;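 also: growth inhibition of the cell line, measured by a cell viability read-out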
Description: SANGER: Inhibition of human Ramos-2G6-4C10 cell growth in a cell viability assay.

COLO-824 = assay type: functional, cell-based
Description: SANGER: Inhibition of human COLO-824 cell growth in a cell viability assay.

IA-LM = assay type: functional, cell-based;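 also: cell viability assay measuring growth inhibition of human IA-LM cells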
Description: SANGER: Inhibition of human IA-LM cell growth in a cell viability assay.

NB5 = assay type: functional, cell-based;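 also: growth inhibition of NB5 cells, read out as cell viability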
Description: SANGER: Inhibition of human NB5 cell growth in a cell viability assay.

MFH-ino = assay type: functional, cell-based;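 also: growth inhibition of human MFH-ino cells, read out by a cell viability assay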
Description: SANGER: Inhibition of human MFH-ino cell growth in a cell viability assay.

L-428 = assay type: functional, cell-based
Description: SANGER: Inhibition of human L-428 cell growth in a cell viability assay.

LXF-289 cell line = assay type: functional, cell-based
Description: SANGER: Inhibition of human LXF-289 cell growth in a cell viability assay.

ACN = assay type: functional, cell-based;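 also: growth inhibition of the human ACN cell line, read out via cell viability testing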
Description: SANGER: Inhibition of human ACN cell growth in a cell viability assay.

HT = assay type: functional, cell-based
Description: SANGER: Inhibition of human HT cell growth in a cell viability assay.

HuTu80 = assay type: functional, cell-based, HUTU-80;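 also: growth inhibition of HuTu80 human cells, determined with a cell viability readout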
Description: SANGER: Inhibition of human HUTU-80 cell growth in a cell viability assay.

GT3TKB = assay type: functional, cell-based;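 also: growth inhibition of the cell line, read out with a cell viability assay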
Description: SANGER: Inhibition of human GT3TKB cell growth in a cell viability assay.

SW 954 = assay type: functional, cell-based;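 also: growth inhibition of SW954 human cancer cells, read out as cell viability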
Description: SANGER: Inhibition of human SW954 cell growth in a cell viability assay.

SK-PN-DW = assay type: functional, cell-based;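 also: growth inhibition measured with a viability assay on these cells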
Description: SANGER: Inhibition of human SK-PN-DW cell growth in a cell viability assay.

RPMI-8866 = assay type: functional, cell-based
Description: SANGER: Inhibition of human RPMI-8866 cell growth in a cell viability assay.

MHH-PREB-1 = assay type: functional, cell-based;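 also: cell viability assay measuring inhibition of proliferation of human MHH-PREB-1 cells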
Description: SANGER: Inhibition of human MHH-PREB-1 cell growth in a cell viability assay.

LB1047-RCC = assay type: functional, cell-based;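 also: inhibition of cell growth, determined with a cell viability assay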
Description: SANGER: Inhibition of human LB1047-RCC cell growth in a cell viability assay.

QIMR-WIL = assay type: functional, cell-based;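 also: growth inhibition of QIMR-WIL cells, read out with a cell viability assay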
Description: SANGER: Inhibition of human QIMR-WIL cell growth in a cell viability assay.

LOX IMVI = assay type: functional, cell-based
Description: SANGER: Inhibition of human LOXIMVI cell growth in a cell viability assay.

A4-Fuk = assay type: functional, cell-based;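 also: growth inhibition of A4-Fuk cells, read out by a cell viability assay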
Description: SANGER: Inhibition of human A4-Fuk cell growth in a cell viability assay.

TGBC24TKB = assay type: functional, cell-based;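 also: growth inhibition of human TGBC24TKB cells, read out with a cell viability assay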
Description: SANGER: Inhibition of human TGBC24TKB cell growth in a cell viability assay.

KLE = assay type: functional, cell-based;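 also: growth inhibition of human KLE cells, read out with a cell viability assay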
Description: SANGER: Inhibition of human KLE cell growth in a cell viability assay.

ML-2 = assay type: functional, cell-based;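 also: growth inhibition of ML-2 cells, measured with a cell viability readout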
Description: SANGER: Inhibition of human ML-2 cell growth in a cell viability assay.

SF-126 = assay type: functional, cell-based;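 also: growth inhibition of human SF126 cells, read out with a cell viability assay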
Description: SANGER: Inhibition of human SF126 cell growth in a cell viability assay.

ONS-76 = assay type: functional, cell-based;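 also: growth inhibition of human ONS-76 cells, read out with a cell viability assay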
Description: SANGER: Inhibition of human ONS-76 cell growth in a cell viability assay.

ES1 = assay type: functional, cell-based;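 also: growth inhibition of ES1 cells, read out with a cell viability assay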
Description: SANGER: Inhibition of human ES1 cell growth in a cell viability assay.

KM12 = assay type: functional, cell-based;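 also: KM12 cell growth inhibition, read out with a cell viability assay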
Description: SANGER: Inhibition of human KM12 cell growth in a cell viability assay.

COLO-668 = assay type: functional, cell-based
Description: SANGER: Inhibition of human COLO-668 cell growth in a cell viability assay.

TK-10 = assay type: functional, cell-based;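 also: growth inhibition of TK-10 cells, read out in a cell viability assay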
Description: SANGER: Inhibition of human TK10 cell growth in a cell viability assay.

DOHH-2 = assay type: functional, cell-based;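 also: growth inhibition of human DOHH-2 cells, read out with a cell viability assay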
Description: SANGER: Inhibition of human DOHH-2 cell growth in a cell viability assay.

SNU-C2B = assay type: functional, cell-based;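 also: cell viability readout used to measure compound-driven suppression of SNU-C2B cell proliferation, IC50 marking half-maximal growth inhibition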
Description: SANGER: Inhibition of human SNU-C2B cell growth in a cell viability assay.

ETK-1 = assay type: functional, cell-based;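 also: growth inhibition of human ETK-1 cells, read out with a cell viability assay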
Description: SANGER: Inhibition of human ETK-1 cell growth in a cell viability assay.

KNS-81-FD = assay type: functional, cell-based;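 also: growth inhibition of KNS-81-FD cells, read out with a cell viability assay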
Description: SANGER: Inhibition of human KNS-81-FD cell growth in a cell viability assay.

HCE-4 = assay type: functional, cell-based;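 also: cell viability assay measuring inhibition of growth in the human HCE-4 cell line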
Description: SANGER: Inhibition of human HCE-4 cell growth in a cell viability assay.

UACC-257 = assay type: functional, cell-based
Description: SANGER: Inhibition of human UACC-257 cell growth in a cell viability assay.

SNB-75 = assay type: functional, cell-based;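 also: cell viability assay measuring growth inhibition of human SNB-75 cells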
Description: SANGER: Inhibition of human SNB75 cell growth in a cell viability assay.

DMS-114 = assay type: functional, cell-based
TE-10 = assay type: functional, cell-based;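 also: growth inhibition of TE-10 cells, measured by a cell viability assay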
Description: SANGER: Inhibition of human TE-10 cell growth in a cell viability assay.

JVM-3 = assay type: functional, cell-based;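 also: growth inhibition of human JVM-3 cells, read out with a cell viability assay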
Description: SANGER: Inhibition of human JVM-3 cell growth in a cell viability assay.

Cn1cc(/C=C2\C(=O)Nc3cccnc32)c2ccccc21
pIC50 (LB831-BLC): < 5.70 | pIC50 (A101D): < 5.70 | pIC50 (ES3): < 5.70 | pIC50 (HCE-T): < 5.70 | pIC50 (COLO-829): < 5.70 | pIC50 (K562): < 5.70 | pIC50 (TE-6): < 5.70 | pIC50 (NB6): < 5.70 | pIC50 (BB65-RCC): < 5.70 | pIC50 (BB30-HNC): < 5.70 | pIC50 (NB69): < 5.70 | pIC50 (NCI-H1395): < 5.70 | pIC50 (CCRF-CEM): < 5.70 | pIC50 (OCI-AML2): < 5.70 | pIC50 (MMAC-SF): < 5.70 | pIC50 (LS-411N): < 5.70 | pIC50 (SHP77): < 5.70 | pIC50 (U-87 MG): < 5.70 | pIC50 697: < 5.70 | pIC50 (NCI-H226): < 5.70 | pIC50 (KM-H2): < 5.70 | pIC50 (LS-1034): < 5.70 | pIC50 (DU-4475): < 5.70 | pIC50 (ES4): < 5.70 | pIC50 (A388): < 5.70 | pIC50 (GI-1): < 5.70 | pIC50 (C2BBe1): < 5.70 | pIC50 (Ramos-2G6-4C10): < 5.70 | pIC50 (COLO-824): < 5.70 | pIC50 (IA-LM): < 5.70 | pIC50 (NB5): < 5.70 | pIC50 (MFH-ino): < 5.70 | pIC50 (L-428): < 5.70 | pIC50 (LXF-289 cell line): < 5.70 | pIC50 (ACN): 6.06 | pIC50 (HT): < 5.70 | pIC50 (HuTu80): < 5.70 | pIC50 (GT3TKB): < 5.70 | pIC50 (SW 954): < 5.70 | pIC50 (SK-PN-DW): < 5.70 | pIC50 (RPMI-8866): < 5.70 | pIC50 (MHH-PREB-1): < 5.70 | pIC50 (LB1047-RCC): < 5.70 | pIC50 (QIMR-WIL): < 5.70 | pIC50 (LOX IMVI): < 5.70 | pIC50 (A4-Fuk): < 5.70 | pIC50 (TGBC24TKB): < 5.70 | pIC50 (KLE): < 5.70 | pIC50 (ML-2): < 5.70 | pIC50 (SF-126): < 5.70 | pIC50 (ONS-76): < 5.70 | pIC50 (ES1): < 5.70 | pIC50 (KM12): 5.71 | pIC50 (COLO-668): < 5.70 | pIC50 (TK-10): < 5.70 | pIC50 (DOHH-2): < 5.70 | pIC50 (SNU-C2B): < 5.70 | pIC50 (ETK-1): < 5.70 | pIC50 (KNS-81-FD): < 5.70 | pIC50 (HCE-4): < 5.70 | pIC50 (UACC-257): 5.82 | pIC50 (SNB-75): < 5.70 | pIC50 (DMS-114): < 5.70 | pIC50 (TE-10): < 5.70 | pIC50 (JVM-3): < 5.70

O=c1cc(N2CCOCC2)oc2c(-c3cccc4c3sc3ccccc34)cccc12
pIC50 (LB831-BLC): < 5.70 | pIC50 (A101D): < 5.70 | pIC50 (ES3): < 5.70 | pIC50 (HCE-T): < 5.70 | pIC50 (COLO-829): < 5.70 | pIC50 (K562): < 5.70 | pIC50 (TE-6): < 5.70 | pIC50 (NB6): < 5.70 | pIC50 (BB65-RCC): < 5.70 | pIC50 (BB30-HNC): < 5.70 | pIC50 (NB69): < 5.70 | pIC50 (NCI-H1395): < 5.70 | pIC50 (CCRF-CEM): < 5.70 | pIC50 (OCI-AML2): < 5.70 | pIC50 (MMAC-SF): < 5.70 | pIC50 (LS-411N): < 5.70 | pIC50 (SHP77): < 5.70 | pIC50 (U-87 MG): < 5.70 | pIC50 697: < 5.70 | pIC50 (NCI-H226): < 5.70 | pIC50 (KM-H2): < 5.70 | pIC50 (LS-1034): < 5.70 | pIC50 (DU-4475): < 5.70 | pIC50 (ES4): < 5.70 | pIC50 (A388): < 5.70 | pIC50 (GI-1): < 5.70 | pIC50 (C2BBe1): < 5.70 | pIC50 (Ramos-2G6-4C10): < 5.70 | pIC50 (COLO-824): < 5.70 | pIC50 (IA-LM): < 5.70 | pIC50 (NB5): < 5.70 | pIC50 (MFH-ino): < 5.70 | pIC50 (L-428): < 5.70 | pIC50 (LXF-289 cell line): < 5.70 | pIC50 (ACN): < 5.70 | pIC50 (HT): < 5.70 | pIC50 (HuTu80): < 5.70 | pIC50 (GT3TKB): < 5.70 | pIC50 (SW 954): < 5.70 | pIC50 (SK-PN-DW): < 5.70 | pIC50 (RPMI-8866): < 5.70 | pIC50 (MHH-PREB-1): < 5.70 | pIC50 (LB1047-RCC): < 5.70 | pIC50 (QIMR-WIL): < 5.70 | pIC50 (LOX IMVI): < 5.70 | pIC50 (A4-Fuk): < 5.70 | pIC50 (TGBC24TKB): < 5.70 | pIC50 (KLE): < 5.70 | pIC50 (SF-126): < 5.70 | pIC50 (ONS-76): < 5.70 | pIC50 (ES1): < 5.70 | pIC50 (KM12): < 5.70 | pIC50 (COLO-668): < 5.70 | pIC50 (TK-10): < 5.70 | pIC50 (DOHH-2): < 5.70 | pIC50 (SNU-C2B): < 5.70 | pIC50 (ETK-1): < 5.70 | pIC50 (KNS-81-FD): < 5.70 | pIC50 (HCE-4): < 5.70 | pIC50 (UACC-257): < 5.70 | pIC50 (SNB-75): < 5.70 | pIC50 (DMS-114): < 5.70 | pIC50 (TE-10): < 5.70 | pIC50 (JVM-3): < 5.70
